Patent US9676820B2, “Method for inhibiting proliferation of high LIX1L-expressing tumor cell, and tumor cell proliferation-inhibiting peptide” (National University Corporation Hamamatsu University School …, priority 2013, dated 2017)

Tests used:
K562 strain [1] = test: MTT assay, K562 strain; type: cell-based; conditions: 72 hours
Description: (§1) Specifically, first, cells plated in a 96-well microplate such that the density thereof became 5×10^3 cells/well were cultured for one night in a culture solution having the same composition as those in the reference examples. Thereafter, the culture solution was exchanged with 100 μL of a culture solution of which the concentration of peptides is 0 μM to 100 μM for culturing for 72 hours. After the culturing, an MTT-containing PBS solution was added to the culture solution, and the mixture was incubated for 4 hours. Then, formazan which was generated by putting 100 μL of isopropanol (containing 34 (v/v) % of hydrochloric acid) into each of the wells was dissolved. The absorbance of each of the wells of the microplate at 570 nm was measured using a microplate reader. As controls, culturing was performed in the same manner except that no peptide was added to the strains, an MTT assay was performed thereon, and the absorbance at 570 nm was measured (untreated).
(§2) Specifically, the cells were cultured for 72 hours similarly to Example 2 except that a peptide to be added to a cell strain was set to peptide 1, 3, or 4, or a control peptide, an MTT assay was performed thereon, and the absorbance at 570 nm was measured.
(§3) In the method for measuring the viable cell counts, cells were cultured for 3 days similarly to Example 1 except that a 25 μM (10 μM for an HL-60 strain, a K562 strain, and a U937 strain) culture solution containing a control peptide or a peptide 1 was used, and the viable cell counts were measured. As a comparison, culturing was performed similarly to the above using a culture solution containing no peptide, and the viable cell counts were measured (untreated).
(§4) In addition, in the method for performing an MTT assay, cells were cultured for 72 hours similarly to Example 2 except that a peptide to be added to a strain was set to a control peptide or a peptide 1 at 25 μM (10 μM for an HL-60 strain, a K562 strain, and a U937 strain), an MTT assay was performed thereon, and the absorbance at 570 nm was measured. As a comparison, culturing was performed similarly to the above using a culture solution containing no peptide, and the MTT assay was performed thereon (untreated).
(§5) Specifically, the cells were cultured for 72 hours similarly to Example 2 except that a peptide to be added to a cell was set to a peptide 1, 2, 5, or 6, MTT assays were performed thereon, and the absorbance at 570 nm was measured. As a comparison, culturing was performed similarly to the above using a culture solution containing no peptide, and the MTT assay was performed thereon (untreated).
as §5, with “that peptides” for “that a peptide”, “to” for “to a”, “cell strains were” for “cell was”, “to peptides 7 to 14,” for “to a peptide 1, 2, 5, or 6,”
Specifically, the cells were cultured for 72 hours similarly to Example 2 except that a peptide to be added to a cell strain was set to a peptide 15 or 16, an MTT assay was performed thereon, and the absorbance at 570 nm was measured. As a comparison, culturing was performed similarly to the above using a culture solution containing no peptide, and the MTT assay was performed thereon (untreated).

HL-60 strain [2] = test: Viable cell counts (Trypan blue staining), HL-60 strain; type: cell-based; conditions: vs untreated
Description: (§6) Specifically, cells plated such that the density thereof became 1×10^4 cells/3.5 cm well for one plate (6 wells/plate) for each cell strain were cultured for one night in a culture solution having the same composition as those of the culture solutions described in the reference examples. After culturing of 1 well out of the 6 wells was completed, Trypan blue staining was performed on the 1 well, and viable cell counts were counted. The remaining 5 wells were cultured after exchanging the culture solution with a liquid mixture of a Lipofectamine (registered trademark) reagent (12.5 μL/well) and a culture solution (2 mL/well) of which the shRNA concentration became 2.5 μg/well. Then, Trypan blue staining was performed on 1 well 24 hours after the exchange of a culture medium, 1 well 48 hours after the exchange of a culture medium, and the remaining 1 well 72 hours after the exchange of a culture medium, and the viable cell counts were counted. As a control, the viable cell counts were measured (untreated) by performing the culturing similarly to the above except that a culture medium was exchanged with a culture solution to which no shRNA was added.
(§7) Specifically, the viable cell counts were measured after culturing the cells similarly to Example 1 except that a 5 μM culture solution containing a control peptide, a peptide 1, or a peptide 2 was used instead of the culture solution (2 mL/well) of which the shRNA concentration was 2.5 μg/well. The viable cell counts were measured (untreated) by performing the culturing similarly to Example 1 using a culture solution containing no peptide 2, as a control.

MKN45 strain = test: MTT assay, MKN45 strain; type: cell-based; conditions: 72 hours, peptide concentrations up to 250 μM
Description: as §1, with “Thereafter, the culture solution was exchanged with 100 μL of a culture solution of which the concentration of peptides is 0 μM to 100 μM for culturing for 72 hours.” left out
as §3, §4, §5
(§8) Specifically, the cells were cultured for 72 hours similarly to Example 2 except that peptides to be added to cell strains were set to peptides 7 to 14, MTT assays were performed thereon, and the absorbance at 570 nm was measured. […]
(§9) Specifically, the cells were cultured for 72 hours similarly to Example 2 except that a peptide to be added to a cell strain was set to a peptide 15 or 16, an MTT assay was performed thereon, and the absorbance at 570 nm was measured. […]

NUGC-4 strain = test: MTT assay, NUGC-4 strain; type: cell-based; conditions: 72 hours, peptide concentrations up to 250 μM
Description: as §1, with “Thereafter, the culture solution was exchanged with 100 μL of a culture solution of which the concentration of peptides is 0 μM to 100 μM for culturing for 72 hours.” left out
as §3, §4, §5, §8, §9

OCUM-1 strain [3] = test: MTT assay, OCUM-1 strain; type: cell-based; conditions: peptide 0 μM to 100 μM, 72 hours
Description: as §1

RPMI8226 strain [4] = test: Viable cell counts (Trypan blue staining), RPMI8226 strain; type: cell-based; conditions: 5 μM peptide, up to 72 hours, vs untreated
Description: as §6, with “added. […]” for “added.”

HL-60 strain [5] = test: MTT assay, HL-60 strain; type: cell-based; conditions: peptide 0 μM to 100 μM, 72 hours
Description: as §1, §3, §4

293 FLG/LIX1L = test: MTT assay, 293 FLG/LIX1L cells; type: cell-based; conditions: 72 hours, peptide concentrations up to 250 μM
Description: as §1, with “Thereafter, the culture solution was exchanged with 100 μL of a culture solution of which the concentration of peptides is 0 μM to 100 μM for culturing for 72 hours.” left out
as §3, §4, §5, §8, §9

KATO-III strain [6] = test: MTT assay, KATO-III strain; type: cell-based; conditions: peptide 0 μM to 100 μM, 72 hours
Description: as §1

K562 strain [7] = test: Viable cell counts (Trypan blue staining), K562 strain; type: cell-based; conditions: vs untreated
Description: as §6, §7

RPMI8226 strain [8] = test: MTT assay, RPMI8226 strain; type: cell-based; conditions: peptide 0 μM to 100 μM, 72 hours
Description: as §1, §2

293 FLG = test: MTT assay, 293 FLG cells; type: cell-based; conditions: 72 hours, peptide concentrations up to 250 μM
Description: as §1, with “Thereafter, the culture solution was exchanged with 100 μL of a culture solution of which the concentration of peptides is 0 μM to 100 μM for culturing for 72 hours.” left out
as §3, §4, §5, §8, §9

OCUM-1 strain [9] = test: Viable cell counts (Trypan blue staining), OCUM-1 strain; type: cell-based; conditions: shRNA 2.5 μg/well, vs untreated
Description: as §6

LIX1L genes = test: RT-PCR of LIX1L gene expression after shRNA treatment; type: cell-based, human; conditions: HL-60, K562, KATO-III and OCUM-1 strains; shRNA 2.5 μg/well; after 72 hours
Description: In the RT-PCR, first, RNA was extracted and purified from the collected cells using RNeasy Mini Kit (manufactured by QIAGEN). The concentration of total RNA was measured using a spectrophotometer. A reverse transcription reaction was performed using First Strand cDNA Synthesis Kit (manufactured by Roche Life Science) for RT-PCR (AMV), for synthesizing cDNA, in 20 μL of a reaction solution containing 1 μg of total RNA and a random primer for 10 minutes at 25° C., subsequently for 45 minutes at 42° C., and then for 2 minutes at 95° C., to deactivate reverse transcriptase. In all PCRs, TaqMan (registered trademark) polymerase (manufactured by Life Technologies Ltd.) was used. […] The signal intensity of a band of LIX1L in an ethidium bromide staining image was measured using densitometry and a relative value of the signal intensity was calculated. In addition, in all quantitative PCR reactions, SYBR (registered trademark) Green I was used. Quantitative determination was performed in 25 μL of a reaction solution containing the synthesized cDNA and a LIX1L primer using an ABI PRISM 7700 Sequence detector (manufactured by Perkin-Elmer/Applied Biosystems). […]

KATO-III strain [10] = test: Viable cell counts (Trypan blue staining), KATO-III strain; type: cell-based; conditions: shRNA 2.5 μg/well, vs untreated
Description: as §6

[11] = shRNA 2.5 μg/well, after 48 hours and 72 hours
[12] = shRNA 2.5 μg/well, until 24 hours

Substance	viable cell counts (HL-60 strain [2]; [11])	viable cell counts (HL-60 strain [2]; [12])	viable cell counts (OCUM-1 strain [9]; after 48 hours and 72 hours)	viable cell counts (OCUM-1 strain [9]; until 24 hours)	expression of LIX1L genes (RT-PCR) (LIX1L genes)	viable cell counts (KATO-III strain [10]; after 48 hours and 72 hours)	viable cell counts (KATO-III strain [10]; until 24 hours)	viable cell counts (K562 strain [7]; [11])	viable cell counts (K562 strain [7]; [12])	other results
YGRKKRRQRRR-X-CYVTLPGGSC-NH2 (YGRKKRRQRRRXCYVTLPGGSC; ε-aminocaproic acid linker; C-terminal amide; peptide 2)										cell proliferation (MTT assay, absorbance at 570 nm) (K562 strain [1]; peptide concentrations up to 250 μM): not inhibited; absorbance at 570 nm (MTT assay), influence on cell proliferation (K562 strain [1]; peptide 0 μM to 100 μM): no particular change in the absorbance at 570 nm; viable cell counts (HL-60 strain [2]; 5 μM peptide, after 72 hours): the same as those in an untreated case; cell proliferation (MTT assay, absorbance at 570 nm) (MKN45 strain): not inhibited; cell proliferation (MTT assay, absorbance at 570 nm) (NUGC-4 strain): not inhibited; absorbance at 570 nm (MTT assay), influence on cell proliferation (OCUM-1 strain [3]): no particular change in the absorbance at 570 nm; viable cell counts (RPMI8226 strain [4]): the same as those in an untreated case; absorbance at 570 nm (MTT assay), influence on cell proliferation (HL-60 strain [5]): no particular change in the absorbance at 570 nm; cell proliferation (MTT assay, absorbance at 570 nm) (293 FLG/LIX1L): not inhibited; absorbance at 570 nm (MTT assay), influence on cell proliferation (KATO-III strain [6]): no particular change in the absorbance at 570 nm; viable cell counts (K562 strain [7]; 5 μM peptide, after 72 hours): the same as those in an untreated case; absorbance at 570 nm (MTT assay), influence on cell proliferation (RPMI8226 strain [8]): no particular change in the absorbance at 570 nm; cell proliferation (MTT assay, absorbance at 570 nm) (293 FLG): not inhibited
LIX1L shRNA #1: shRNA with respect to LIX1L genes; base sequence shown in FIG. 5A (DNA GAGGAGGTGTTGGCTCATTATTTTCAAGAGAAATAATGAGCCAACACCTCCTCTTTTTT)	decreased more clearly than that of the untreated cells	no particular difference	decreased more clearly than that of the untreated cells	no particular difference	hardly observed	decreased more clearly than that of the untreated cells	no particular difference	decreased more clearly than that of the untreated cells	no particular difference	
LIX1L shRNA #2: shRNA with respect to LIX1L genes; base sequence shown in FIG. 5B (DNA GAGTCCCGTGGTGCTGACTTAATTCAAGAGATTAAGTCAGCACCACGGGACTCTTTTTT)	decreased more clearly than that of the untreated cells	no particular difference	decreased more clearly than that of the untreated cells	no particular difference	hardly observed	decreased more clearly than that of the untreated cells	no particular difference	decreased more clearly than that of the untreated cells	no particular difference	
